From ChEMBL document CHEMBL4229455, “Synthesis and anticancer activity of novel bisindolylhydroxymaleimide derivatives with potent GSK-3 kinase inhibition” (Bioorg Med Chem, 2018)

Assays:
Format in all cases: functional
[1] = tested on: 786-0; assay: Cytotoxicity against human 786-O cells assessed as cell growth at 0.01 uM after 48 hrs by SRB assay relative to control; conditions: 786-0, 48 h, read-out: Activity
[2] = tested on: T47D; assay: Cytotoxicity against human T47D cells assessed as cell growth at 100 uM after 48 hrs by SRB assay relative to control; conditions: read-out: Activity
[3] = tested on: A549; assay: Cytotoxicity against human A549 cells assessed as cell growth at 1 uM after 48 hrs by SRB assay relative to control; conditions: A549, 48 h, read-out: Activity
[4] = tested on: ACHN; assay: Cytotoxicity against human ACHN cells assessed as cell growth at 100 uM after 48 hrs by SRB assay relative to control; conditions: read-out: Activity
[5] = tested on: HCT-116; assay: Cytotoxicity against human HCT116 cells assessed as cell growth at 1 uM after 48 hrs by SRB assay relative to control; conditions: HCT-116, 48 h, read-out: Activity
[6] = tested on: CCRF-CEM; assay: Cytotoxicity against human CCRF-CEM cells assessed as cell growth at 0.01 uM after 48 hrs by SRB assay relative to control; conditions: read-out: Activity
[7] = tested on: K562; assay: Cytotoxicity against human K562 cells assessed as cell growth at 100 uM after 48 hrs by SRB assay relative to control; conditions: K562, 48 h, read-out: Activity
[8] = tested on: HCC 2998; assay: Cytotoxicity against human HCC2998 cells assessed as cell growth at 1 uM after 48 hrs by SRB assay relative to control; conditions: HCC 2998, 48 h, read-out: Activity
[9] = tested on: SNB-75; assay: Cytotoxicity against human SNB75 cells assessed as cell growth at 0.01 uM after 48 hrs by SRB assay relative to control; conditions: SNB-75, 48 h, read-out: Activity
[10] = tested on: TK-10; assay: Cytotoxicity against human TK10 cells after 48 hrs by SRB assay; conditions: TK-10, 48 h; for CC50: read-out: LC50 (the source's name)
[11] = tested on: UACC-62; assay: Cytotoxicity against human UACC62 cells assessed as cell growth at 100 uM after 48 hrs by SRB assay relative to control; conditions: UACC-62, 48 h, read-out: Activity
[12] = tested on: LOX IMVI; assay: Cytotoxicity against human LOXIMVI cells assessed as cell growth at 0.1 uM after 48 hrs by SRB assay relative to control; conditions: read-out: Activity
[13] = tested on: SNB-75; assay: Cytotoxicity against human SNB75 cells assessed as cell growth at 0.1 uM after 48 hrs by SRB assay relative to control; conditions: SNB-75, 48 h, read-out: Activity
[14] = tested on: NCI/ADR-RES; assay: Cytotoxicity against human NCI-ADR-RES cells after 48 hrs by SRB assay; conditions: for CC50: read-out: LC50 (the source's name)
[15] = tested on: HT-29; assay: Cytotoxicity against human HT-29 cells after 48 hrs by SRB assay; conditions: HT-29, 48 h
[16] = tested on: NCI-H226; assay: Cytotoxicity against human NCI-H226 cells assessed as cell growth at 0.1 uM after 48 hrs by SRB assay relative to control; conditions: NCI-H226, 48 h, read-out: Activity
[17] = tested on: HT-29; assay: Cytotoxicity against human HT-29 cells assessed as cell growth at 100 uM after 48 hrs by SRB assay relative to control; conditions: HT-29, 48 h, read-out: Activity
[18] = tested on: NCI/ADR-RES; assay: Cytotoxicity against human NCI-ADR-RES cells assessed as cell growth at 100 uM after 48 hrs by SRB assay relative to control; conditions: read-out: Activity
[19] = tested on: COLO 205; assay: Cytotoxicity against human COLO205 cells assessed as cell growth at 0.01 uM after 48 hrs by SRB assay relative to control; conditions: COLO 205, 48 h, read-out: Activity
[20] = tested on: SK-MEL-28; assay: Cytotoxicity against human SK-MEL-28 cells assessed as cell growth at 0.01 uM after 48 hrs by SRB assay relative to control; conditions: SK-MEL-28, 48 h, read-out: Activity
[21] = tested on: SF-268; assay: Cytotoxicity against human SF268 cells assessed as cell growth at 0.01 uM after 48 hrs by SRB assay relative to control; conditions: SF-268, 48 h, read-out: Activity
[22] = tested on: OVCAR-8; assay: Cytotoxicity against human OVCAR8 cells assessed as cell growth at 100 uM after 48 hrs by SRB assay relative to control; conditions: OVCAR-8, 48 h, read-out: Activity
[23] = tested on: CAKI-1; assay: Cytotoxicity against human Caki1 cells after 48 hrs by SRB assay; conditions: CAKI-1, 48 h
[24] = tested on: SNB-19; assay: Cytotoxicity against human SNB19 cells assessed as cell growth at 100 uM after 48 hrs by SRB assay relative to control; conditions: SNB-19, 48 h, read-out: Activity
[25] = tested on: MCF7; assay: Cytotoxicity against human MCF7 cells assessed as cell growth at 0.01 uM after 48 hrs by SRB assay relative to control; conditions: MCF7, 48 h, read-out: Activity
[26] = tested on: SK-MEL-28; assay: Cytotoxicity against human SK-MEL-28 cells assessed as cell growth at 0.1 uM after 48 hrs by SRB assay relative to control; conditions: SK-MEL-28, 48 h, read-out: Activity
[27] = tested on: OVCAR-3; assay: Cytotoxicity against human OVCAR3 cells assessed as cell growth at 0.1 uM after 48 hrs by SRB assay relative to control; conditions: OVCAR-3, 48 h, read-out: Activity
[28] = tested on: NCI-H460; assay: Cytotoxicity against human NCI-H460 cells assessed as cell growth at 0.1 uM after 48 hrs by SRB assay relative to control; conditions: NCI-H460, 48 h, read-out: Activity
[29] = tested on: SF-539; assay: Cytotoxicity against human SF539 cells assessed as cell growth at 0.1 uM after 48 hrs by SRB assay relative to control; conditions: SF-539, 48 h, read-out: Activity
[30] = tested on: OVCAR-8; assay: Cytotoxicity against human OVCAR8 cells assessed as cell growth at 0.1 uM after 48 hrs by SRB assay relative to control; conditions: OVCAR-8, 48 h, read-out: Activity
[31] = tested on: HL-60(TB); assay: Cytotoxicity against human HL-60(TB) cells assessed as cell growth at 0.1 uM after 48 hrs by SRB assay relative to control; conditions: HL-60, 48 h, read-out: Activity
[32] = tested on: SK-MEL-2; assay: Cytotoxicity against human SK-MEL-2 cells assessed as cell growth at 0.01 uM after 48 hrs by SRB assay relative to control; conditions: SK-MEL-2, 48 h, read-out: Activity
[33] = tested on: PC-3; assay: Cytotoxicity against human PC3 cells assessed as cell growth at 0.1 uM after 48 hrs by SRB assay relative to control; conditions: PC-3, 48 h, read-out: Activity
[34] = tested on: Hs-578T; assay: Cytotoxicity against human Hs 578T cells assessed as cell growth at 0.1 uM after 48 hrs by SRB assay relative to control; conditions: read-out: Activity
[35] = tested on: Malme-3M; assay: Cytotoxicity against human MALME-3M cells after 48 hrs by SRB assay
[36] = tested on: NCI-H23; assay: Cytotoxicity against human NCI-H23 cells assessed as cell growth at 0.01 uM after 48 hrs by SRB assay relative to control; conditions: NCI-H23, 48 h, read-out: Activity

Structure (SMILES): Cn1cc(C2=C(c3cn(C)c4ncccc34)C(=O)NC2=O)c2ccccc21
- growth at 0.01 µM [1]: 99%
- growth at 100 µM [2]: -11%
- growth at 1 µM [3]: 84%
- growth at 100 µM [4]: -11%
- growth at 1 µM [5]: 86%
- growth at 0.01 µM [6]: 98%
- growth at 100 µM [7]: 2%
- growth at 1 µM [8]: 85%
- growth at 0.01 µM [9]: 83%
- GI50 [10]: 4.82 µM
- TGI [10]: 43.9 µM
- CC50 [10]: > 100 µM
- growth at 100 µM [11]: -51%
- growth at 0.1 µM [12]: 92%
- growth at 0.1 µM [13]: 65%
- GI50 [14]: 5.19 µM
- TGI [14]: 44 µM
- CC50 [14]: > 100 µM
- GI50 [15]: 3.07 µM
- TGI [15]: 20.6 µM
- growth at 0.1 µM [16]: 91%
- growth at 100 µM [17]: -10%
- growth at 100 µM [18]: -19%
- growth at 0.01 µM [19]: 105%
- growth at 0.01 µM [20]: 97%
- growth at 0.01 µM [21]: 103%
- growth at 100 µM [22]: -15%
- GI50 [23]: 1.19 µM
- TGI [23]: 10.2 µM
- growth at 100 µM [24]: -11%
- growth at 0.01 µM [25]: 93%
- growth at 0.1 µM [26]: 95%
- growth at 0.1 µM [27]: 111%
- growth at 0.1 µM [28]: 97%
- growth at 0.1 µM [29]: 107%
- growth at 0.1 µM [30]: 100%
- growth at 0.1 µM [31]: 99%
- growth at 0.01 µM [32]: 109%
- growth at 0.1 µM [33]: 94%
- growth at 0.1 µM [34]: 81%
- GI50 [35]: 5.47 µM
- TGI [35]: 52.4 µM
- growth at 0.01 µM [36]: 100%

Structure (SMILES): N#CCCCCCn1cc(C2=C(c3cn(CCCCCC#N)c4ccccc34)C(=O)N(O)C2=O)c2ccccc21
- growth at 0.01 µM [1]: 103%
- growth at 100 µM [2]: -7%
- growth at 1 µM [3]: 100%
- growth at 100 µM [4]: 4%
- growth at 1 µM [5]: 98%
- growth at 0.01 µM [6]: 91%
- growth at 100 µM [7]: 3%
- growth at 1 µM [8]: 108%
- growth at 0.01 µM [9]: 79%
- GI50 [10]: 22.2 µM
- TGI [10]: > 100 µM
- CC50 [10]: > 100 µM
- growth at 100 µM [11]: -55%
- growth at 0.1 µM [12]: 90%
- growth at 0.1 µM [13]: 72%
- GI50 [14]: 20.4 µM
- TGI [14]: > 100 µM
- CC50 [14]: > 100 µM
- GI50 [15]: 10.2 µM
- LC50 [15]: > 100 µM
- TGI [15]: 40.7 µM
- growth at 0.1 µM [16]: 96%
- growth at 100 µM [17]: -33%
- growth at 100 µM [18]: 24%
- growth at 0.01 µM [19]: 99%
- growth at 0.01 µM [20]: 102%
- growth at 0.01 µM [21]: 97%
- growth at 100 µM [22]: 3%
- GI50 [23]: 21.3 µM
- LC50 [23]: > 100 µM
- TGI [23]: > 100 µM
- growth at 100 µM [24]: 20%
- growth at 0.01 µM [25]: 91%
- growth at 0.1 µM [26]: 102%
- growth at 0.1 µM [27]: 101%
- growth at 0.1 µM [28]: 104%
- growth at 0.1 µM [29]: 90%
- growth at 0.1 µM [30]: 99%
- growth at 0.1 µM [31]: 89%
- growth at 0.01 µM [32]: 100%
- growth at 0.1 µM [33]: 88%
- growth at 0.1 µM [34]: 91%
- GI50 [35]: 12 µM
- LC50 (concentration killing 50% of cells) [35]: > 100 µM
- TGI [35]: 62.8 µM
- growth at 0.01 µM [36]: 95%
